Measurements reported in patent publication US9833433B1, “Compositions, methods of use, and methods of treatment” (priority 2013, dated 2017).

Key:
PSD-95 = test: Hippocampal PSD-95 expression (immunoblot); format: in vivo, mice; conditions: Δ^9-THC for 7 days
Protocol: Western blot assay was conducted using specific antibodies (Table S1) to determine expressions of COX-2, glutamate receptor subunits, PSD-95, G-protein subunits, phosphoproteins, BACE1 and neprilysin in hippocampal tissue and/or in cultured cells as described previously (Chen et al., 2012). Surface biotinylation assays were performed to determine surface expression of glutamate receptor subunits in hippocampal slices as described previously (Fan et al., 2010).

locomotor activity = test: Open field test (locomotor activity); format: in vivo, mice; conditions: Δ^9-THC 10 mg/kg; 30 min open field
Protocol: (§1) The classic Morris water maze and fear conditioning tests were performed to determine spatial and fear memory as described previously (Chen et al., 2012). The ‘open field’ test was conducted to detect the locomotor activity and the bar test was used to detect catalepsy (Egashira et al., 2007).
The ‘open field’ test was conducted using an automatic-recording open-field working station (MED Associates, Georgia, Vt.). During the test, mice were individually released into the center of the box immediately after injections of Δ^9-THC, NS398, Δ^9-THC+NS398, Celebrex or Celebrex+Δ^9-THC. Celebrex and NS398 were injected 30 min prior to Δ^9-THC injection and allowed to explore the field for 30 min and their behaviors were recorded by a photobeam-scanning system and a video camera simultaneously. Data were analyzed automatically by the computer-sampling system.

[1] = tested on: Akt, ERK, p38MAPK and NF-κB; test: Phosphorylation of Akt, ERK, p38MAPK and NF-κB in hippocampal tissue; format: in vivo, mice; conditions: Δ^9-THC 10 mg/kg
fear memory = test: Fear conditioning test (contextual memory); format: in vivo, mice; conditions: 10 mg/kg once a day for 7 days; freezing 24 hrs after last injection
Protocol: as §1
Hippocampus-dependent contextual memory was determined using a fear-conditioning working-station (Coulbourn Instruments, Allentown, Pa.) and a one-trial protocol as describe previously (Chen et al., 2006a; 2006b). Mice were individually put into the shock chamber and allowed to freely explore the environment for 150 seconds. Immediately after this, a tone at 90 dB and 2,800 Hz (CS) was delivered for 30 seconds, and at the last 2 seconds a foot shock at 0.8 mA was delivered to the mice for 2 seconds (US). After the pairing of CS/US, mice were allowed to stay in the chamber for another 30 seconds and then returned to their home cages. Then the animals started receiving vehicle, Δ^9-THC (10 mg/kg), NS398 (10 mg/kg), Δ^9-THC+NS398 once a day for 7 days. Fear memory test was conducted 24 hours after the cessation of the last injections. For contextual conditioning, mice were individually put back into the chamber where they received the shock and the freezing response was recorded for 5 minutes with a sampling method at an interval of 5 seconds. […]

[2] = tested on: dendritic spines of CA1 pyramidal neurons; test: Two-photon imaging of dendritic spines in CA1 pyramidal neurons; format: in vivo, mice; conditions: repeated Δ^9-THC exposure; Thy1-GFP mice
Protocol: Morphology of dendritic spines in hippocampal CA1 pyramidal neurons was determined in GFP-expressing transgenic mice using a two-photon laser scanning microscope as described previously (Chen et al., 2012). Shape, size, and density of spines were measured from the three-dimensional reconstructions using NeuronStudio Version 0.9.92.
Morphology of dendritic spines in hippocampal CA1 pyramidal neurons was determined in GFP-expressing transgenic mice treated with vehicle, Δ^9-THC or NS398+Δ^9-THC using a two-photon laser scanning microscope (Chameleon hands-free ultrafast Ti: sapphire laser with an Olympus scan head) with Olympus FLUOVIEW 300 software (Chen et al., 2012). Shape (thin, mushroom, or stubby), size, density, and volume of spines were measured from the three-dimensional reconstructions (Z stacks: 1μ step for the whole cell and 0.1μ step for a segment of dendrites) using AutoQuant X2 or 3D deconvolution plugin of Image J (http://bigwww.epfl.ch/algorithms/deconvolutionlab) and NeuronStudio (for 3D reconstruction of imaged dendritic spines, Version 0.9.92; http://research.mssm.edu/cnic/tools-ns.html, CNIC, Mount Sinai School of Medicine). […] The following parameters were used in analyzing and quantifying spines using NeuronStudio: Voxel size was set as 0.029*0.029*0.3 μm. […]

CREB = test: Phosphorylation of hippocampal CREB; conditions: WT mice; Δ^9-THC for 7 days
COX-1 = test: Hippocampal COX-1 expression in mice (immunoblot); format: in vivo; conditions: Δ^9-THC 10 mg/kg, detected 4 hrs after injection
Aβ plaques = Aβ plaques in 5XFAD APP transgenic mice (immunohistochemistry); format: in vivo; conditions: Δ^9-THC 3 mg/kg once daily for 4 weeks
Protocol: Immunohistochemical analyses were performed to determine total Aβ in coronal brain sections as described previously (Chen et al., 2012). 5XFAD APP transgenic mice that vehicle, or Δ^9-THC (3 mg/kg) or Δ^9-THC+Celebrex (1 mg/kg) for 4 weeks at 4 to 6 months of age were anesthetized with ketamine/Xylazine (200/10 mg/kg) and subsequently transcardially perfused with PBS followed by 4% paraformaldehyde in phosphate buffer. The brains were quickly removed from the skulls and fixed in 4% paraformaldehyde overnight, and then transferred into the PBS containing 30% sucrose until sinking to the bottom of the small glass jars. Cryostat sectioning was made on a freezing Vibratome at 40 μm and series sections (10 to 12 slices) were collected in 0.1M phosphate buffer. […] 4′-6-Diamidino-2-phenylindole (DAPI), a fluorescent stain that binds strongly to DNA, was used it to detect cell nuclei in the sections. The sections were then mounted on slides for immunofluorescence detection using a Zeiss fluorescence microscope.

`CCCCCc1cc(O)c2c(c1)OC(C)(C)[C@@H]1CCC(C)=C[C@@H]21` [Δ^9-THC, Δ^9-tetrahydrocannabinol] was tested, and the PSD-95 expression (PSD-95) was “reduced expression of PSD-95”, the locomotor depressive effect (locomotor activity) was “cataleptic and locomotor depressive effects” and the “phosphorylation of Akt, ERK, p38MAPK and NF-κB in the hippocampus” value [1] was “confirmed”. For the same molecule, the “fear memory after repeated Δ^9-THC” value (fear memory) was “impaired fear memory”, the “density of dendritic spines” value [2] was “significantly reduced density of dendritic spines of CA1 pyramidal neurons” and the “phosphorylation of hippocampal CREB” value (CREB) was “reduced expression of glutamate receptor subunits and phosphorylation of CREB”. The “hippocampal COX-1 expression” value (COX-1) was “unaffected”, the “numbers of Aβ plaques” value (Aβ plaques; absence of Celebrex) was “significantly reduced” and the “numbers of Aβ plaques” value (Aβ plaques; presence of Celebrex 1 mg/kg) was “significantly reduced”.
